{"source": "paper PMC7591906", "about": "“pHLIP ICG for delineation of tumors and blood flow during fluorescence-guided surgery” (Scientific Reports, 2020)", "key": {"[1]": {"settings": "cited from earlier work", "procedure": "We carried out a comparative study of blood flow imaging in mice using ICG-Cys (ICG-maleimide conjugated with a Cys residue) and pHLIP ICG (2.5 nmol of each). […] The most widely used is the near-infrared emitting ICG, first approved for angiography and subsequently used in ophthalmology and elsewhere for imaging blood vessels[36]–[41]. […] If administered intraperitoneally, ICG is found in the nearest lymph nodes within 15 min, and in the regional lymph nodes within 1–2 h[44],[45]. The IV dose of ICG varies from 0.5 to 2.0 ..."}, "[2]": {"test": "Peripheral blood micronucleus test in rats (GLP)", "format": "in vivo, Sprague Dawley rats", "settings": "male rats, 10 mg/kg oral gavage twice, 24 hours apart", "procedure": "The objective of this GLP study performed at CRL was to determine the potential genotoxicity of pHLIP ICG when given by i.v. bolus injection to rats using the peripheral blood micronucleus test.\nIn order to determine the maximum tolerated dose, a dose-range finding test was performed prior to the main test, where male and female rats (3 animals/sex) were administered a single dose of pHLIP ICG by i.v. injection. The doses evaluated were 14 mg/kg and 25 mg/kg using 5% EtOH in PBS, pH 7.4 as the vehicle.\nBlood was collected for micronuclei evaluation at 45 hours post-dose (Groups 3 to 7), and 69 hours post-dose (Groups 3 and 7). The proportion of immature erythrocytes among total erythrocytes in the peripheral blood (%RETs) and the percentage of micronucleated reticulocytes (%MN-RETs) in the NC group were within the laboratory historical negative control range. […] The results from both NC and PC groups confirmed the validity of the assay."}, "progesterone receptor B": {"target": "T1, progesterone receptor B (Homo sapiens, UniProt P06401)", "T1 construct": "purchased Eurofins Panlabs, Inc", "T1 sequence (P06401 1-933)": "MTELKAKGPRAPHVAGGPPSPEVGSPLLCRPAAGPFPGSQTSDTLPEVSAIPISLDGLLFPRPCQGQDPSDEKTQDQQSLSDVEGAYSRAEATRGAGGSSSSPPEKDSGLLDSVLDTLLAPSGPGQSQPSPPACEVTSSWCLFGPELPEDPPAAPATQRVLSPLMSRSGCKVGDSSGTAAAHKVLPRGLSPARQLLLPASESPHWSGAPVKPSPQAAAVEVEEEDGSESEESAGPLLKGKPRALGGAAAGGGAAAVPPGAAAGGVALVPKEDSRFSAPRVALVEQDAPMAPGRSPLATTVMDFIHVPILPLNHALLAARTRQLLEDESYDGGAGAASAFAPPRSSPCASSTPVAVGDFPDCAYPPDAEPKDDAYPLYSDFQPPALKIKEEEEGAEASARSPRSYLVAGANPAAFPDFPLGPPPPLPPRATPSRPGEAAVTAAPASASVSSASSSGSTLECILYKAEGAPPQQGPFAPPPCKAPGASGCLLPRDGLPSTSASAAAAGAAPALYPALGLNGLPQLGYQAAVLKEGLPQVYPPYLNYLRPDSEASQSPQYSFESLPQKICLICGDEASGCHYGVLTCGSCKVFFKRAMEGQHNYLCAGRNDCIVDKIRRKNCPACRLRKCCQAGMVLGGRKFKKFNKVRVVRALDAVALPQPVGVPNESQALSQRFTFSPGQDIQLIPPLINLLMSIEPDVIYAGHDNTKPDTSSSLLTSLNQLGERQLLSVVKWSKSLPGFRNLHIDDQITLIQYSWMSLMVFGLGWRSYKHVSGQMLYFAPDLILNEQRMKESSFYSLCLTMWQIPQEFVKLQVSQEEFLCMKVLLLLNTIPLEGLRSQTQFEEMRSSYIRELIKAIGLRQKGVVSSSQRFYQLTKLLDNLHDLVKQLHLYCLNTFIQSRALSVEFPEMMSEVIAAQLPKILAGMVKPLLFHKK", "test": "Progesterone receptor B radioligand binding assay", "procedure": "The pHLIP ICG enzyme binding assays were performed by Eurofins Panlabs, Inc. according to standard assay protocols. The following enzymes were used in the binding assay with 2 µM of pHLIP ICG : acetyl cholinesterase; peptidase (angiotensin converting enzyme); ATPase (Na^+/K^+, pig heart); CTSG peptidase (cathepsin G); cyclooxygenases COX-1 and COX-2; monoamine oxidases MAO-A and MAO-B; phosphodiesterases PDE3 and PDE4D2; protein tyrosine kinase (insulin receptor); protein tyrosine kinase (LCK); protein serine/threonine kinase (PKC, non-selective); adenosine A1 and A2A; adenosine transporter; adrenergic α1A, α1B, α1D, α2A, α2B, β1 and β2; norepinephrine transporter (NET); androgen (testosterone); angiotensin AT1; bradykinin B2; calcium channels L-type (benzothiazepine, dihydropyridine, phenylalkylamine); calcium channel N-type; cannabinoid CB1 and CB2; chemokine CCR1; cholecystokinin CCK1 (CCKA) and CCK2 (CCKB); dopamine D1, D2L and D2S; dopamine transporter (DAT); endothelin ETA; estrogen ERα; GABA transporter; GABAAs (flunitrazepam, central; Ro-15-1788, hippocampus and chloride channel, TBOB); glucocorticoid; glutamate (AMPA, kainate, agonism NMDA, glycine NMDA, phencyclidine NMDA, polyamine NMDA, and mGlu5 metabotropic); glycine (strychnine-sensitive); histamine H1 and H2; chemokine CXCR2 (IL-8RB); cysteinyl leukotriene (CysLT1); melanocortin MC1 and MC4; muscarinic M1, M2, M3, and M4; tachykinin NK1; neuropeptide Y Y1; nicotinic acetylcholine α1 (bungarotoxin) and α3β4; opiate δ1 (OP1, DOP), κ (OP2, KOP), and μ (OP3, MOP); platelet activating factor (PAF); potassium channels (KATP and hERG); PPARγ; serotonin (5-hydroxytryptamine) 5-HT1A, 5-HT1B, 5-HT2A, 5-HT2B, 5-HT2C, and 5-HT3; serotonin transporter (SERT); sodium channel (site 2); vasopressin V1A; progesterone (PR-B). The most significant inhibitory effect of pHLIP ICG was observed on progesterone B and was followed by an additional study to identify IC50 values, which were determined by a non-linear least square regression analysis using MathIQTM (ID Business Solutions Ltd., UK). The Ki values were calculated by the equation from Cheng and Prusoff [Cheng, Y., Prusoff, W.H., Biochem. Pharmacol. 22:3099-3108, 1973] using the observed IC50 of pHLIP ICG , the concentration of radioligand employed in the assay, and the historical values for the KD of the ligand (Eurofins Panlabs data). The Hill coefficient (nH), defining the slope of the competitive binding curve, was calculated using MathIQTM. The IC50, Ki, and nH values were established for pHLIP ICG and compared to the known progesterone agonist, R-2050 (Figure S3).\nFigure SI,3. […]"}}, "data": [{"molecule": "CC1(C)C(/C=C/C=C/C=C/C=C2\\N(CCCCS(=O)(=O)O)c3ccc4ccccc4c3C2(C)C)=[N+](CCCCS(=O)(=O)[O-])c2ccc3ccccc3c21", "note": "[ICG, indocyanine green]", "values": [{"measurement": "Time to be found in the nearest lymph nodes", "setting": "[1]; administered intraperitoneally", "result": "≤ 15", "unit": "min"}, {"measurement": "Time to be found in the regional lymph nodes", "setting": "[1]; administered intraperitoneally", "result": "1 to 2", "unit": "h"}, {"measurement": "Clearance from the blood", "setting": "[1]; as contrast agent for imaging blood flow, no reference given", "result": "within a few minutes"}, {"measurement": "Half-life in blood", "setting": "[1]", "result": 2.5, "unit": "min"}, {"measurement": "Time of appearance in the bile after injection", "setting": "[1]; cleared through the liver", "result": "about 8 min"}, {"measurement": "Acute toxicity", "setting": "[1]; high dose of 5 mg/kg", "result": "no acute toxicity has been observed"}]}, {"molecule": "O=P1(N(CCCl)CCCl)NCCCO1", "note": "(stereo not drawn) [PC, cyclophosphamide monohydrate, reference compound]", "values": [{"measurement": "Micronuclei, positive control", "setting": "[2]", "result": "statistically significant increase in micronuclei"}]}, {"molecule": "CCC(=O)[C@@]1(C)CC[C@H]2[C@@H]3CCC4=CC(=O)CCC4=C3CC[C@@]21C", "note": "[R-2050, reference compound]", "values": [{"measurement": "Ki", "setting": "progesterone receptor B; Cheng-Prusoff from IC50, reference agonist, read-out: Ki progesterone receptor B", "result": 260, "unit": "pM"}, {"measurement": "IC50", "setting": "progesterone receptor B; radioligand binding, 20 hrs, reference agonist, read-out: IC50 progesterone receptor B", "result": 330, "unit": "pM"}]}]}
